{"source": "paper PMC6397271", "about": "(Scientific Reports, 2019)", "key": {"[1]": {"system": "Enterococcus faecalis 3937158", "experiment": "microbe, parasite or virus in culture", "format": "cell-based", "outline": "(§1)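 Strains were cultured aerobically at 37 °C for 24 h, MRSA in cation-adjusted Mueller-Hinton broth and enterococci in BHI broth. Cultures were serially diluted and plated to set CFU/ml. MICs then came from broth microdilution, scored by resazurin reduction.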"}, "[2]": {"system": "Enterococcus faecium 3934825", "experiment": "microbe, parasite or virus in culture", "format": "cell-based", "outline": "as §1"}, "[3]": {"system": "S.aureus MRSA N315", "experiment": "microbe, parasite or virus in culture", "format": "cell-based, Staphylococcus aureus", "details": "Staphylococcus aureus, MRSA", "experimental": "To find out MICA(with B) and MICB(with A) a checkerboard assay was carried out in 96-well microtiter plates (each test was performed in triplicates). […] Each well in a 96-well plate was inoculated with 100 µL of bacterial inoculum of 1 × 10^5 CFU/mL. For this purpose only bacterial strains of MRSA (N315, 12673 and 6347) were used. Next, the plates were incubated at 37 °C for 24 h.\nFIC index (FICI) is the sum of FICA and FICB. The interpretation of the calculated FICIs is in accordance to the following principle: FICI ≤ 0.5 synergy; FICI > 0.5 and ≤4 indifference (no interaction); FICI > 4, antagonism."}, "[4]": {"system": "intracellular MRSA 12673 strain in HEK293 cells", "experiment": "Intracellular antimicrobial (infection) assay", "format": "cell-based, Staphylococcus aureus", "experimental": "HEK293 (human embryonic kidney) cells were purchased form Cell Line Services (Germany). The cells were cultured in Dulbecco’s Modified Eagle’s (DMEM) medium with 4.5 g/l glucose (Sigma-Aldrich, Germany), supplemented with 10% fetal bovine serum (FBS, Sigma-Aldrich, Germany) and 1% PEN/STREP (Sigma-Aldrich, Germany). Cells were maintained in a 5% CO2 incubator at 37 °C. The original lines were checked for the presence of mycoplasma.\nHEK293 cells were seeded at a density of 1.5 × 10^5 cells/well in 24-well plates in an antibiotic-free medium (DMEM + 10% FBS) and were allowed to adhere overnight. Next, the medium was removed and overnight culture of S. aureus strain (12673) suspended in DMEM + 1% FBS (invasive medium) at a ratio of bacteria/cells 25:1 was added. To enable bacterial invasion, the cells were incubated with bacterial suspensions (37 °C, 5% CO2) for 2 h.\nAfter this period of time extracellular bacteria were eliminated by a 30 min incubation with 20 U/ml lysostaphin. […] The lysis of human cells was carried out with 0.2% Trition-X-100 (Sigma-Aldrich, Germany). The obtained cell lysates were serially diluted in PBS and plated on agar plates and CFU/ml was determined.\nThe results are presented as the percentage of S. aureus intracellular survival after treatment in comparison to that of non-treated cells (control). The assay was performed in triplicates."}, "[5]": {"details": "microbroth dilution, 96-well, resazurin, 37 °C, 24 h, mean ± SD, at least three independent experiments in triplicates, listed as Van-HCl"}, "[6]": {"details": "same test as μM value, mean ± SD"}}, "note": "Read-outs that look alike come from different tables or passages of the source."}
{"smiles": "CN[C@H](CC(C)C)C(=O)N[C@H]1C(=O)N[C@@H](CC(N)=O)C(=O)N[C@H]2C(=O)N[C@H]3C(=O)N[C@H](C(=O)N[C@H](C(=O)O)c4cc(O)cc(O)c4-c4cc3ccc4O)[C@H](O)c3ccc(c(Cl)c3)Oc3cc2cc(c3O[C@@H]2O[C@H](CO)[C@@H](O)[C@H](O)[C@H]2O[C@H]2C[C@](C)(N)[C@H](O)[C@H](C)O2)Oc2ccc(cc2Cl)[C@H]1O", "note": "[Van, vancomycin, reference compound]", "values": [{"measurement": "MIC", "setting": "[1]; Enterococcus faecalis, 3937158, 24 h, microbroth dilution, 96-well, resazurin, 37 °C, 24 h, mean ± SD, at least three independent experiments in triplicates, read-out: MIC", "result": 25, "unit": "µM"}, {"measurement": "MIC", "setting": "[1]; Enterococcus faecalis, 3937158, raw MIC, first block, test a, repetition 1, read-out: MIC1a", "result": 25, "unit": "µM"}, {"measurement": "MIC", "setting": "[1]; Enterococcus faecalis, 3937158, raw MIC, first block, test a, repetition 2, read-out: MIC2a", "result": 25, "unit": "µM"}, {"measurement": "MIC", "setting": "[1]; Enterococcus faecalis, 3937158, raw MIC, first block, test a, repetition 3, read-out: MIC3a", "result": 12.5, "unit": "µM"}, {"measurement": "MIC", "setting": "[1]; Enterococcus faecalis, 3937158, raw MIC, first block, test b, repetition 1, read-out: MIC1b", "result": 25, "unit": "µM"}, {"measurement": "MIC", "setting": "[1]; Enterococcus faecalis, 3937158, raw MIC, first block, test b, repetition 2, read-out: MIC2b", "result": 25, "unit": "µM"}, {"measurement": "MIC", "setting": "[1]; Enterococcus faecalis, 3937158, raw MIC, first block, test b, repetition 3, read-out: MIC3b", "result": 12.5, "unit": "µM"}, {"measurement": "MIC", "setting": "[1]; Enterococcus faecalis, 3937158, raw MIC, test a, repetition 1, read-out: MIC1a", "result": 37.1, "unit": "µM"}, {"measurement": "MIC", "setting": "[1]; Enterococcus faecalis, 3937158, raw MIC, test a, repetition 2, read-out: MIC2a", "result": 37.1, "unit": "µM"}, {"measurement": "MIC", "setting": "[1]; Enterococcus faecalis, 3937158, raw MIC, test a, repetition 3, read-out: MIC3a", "result": 18.6, "unit": "µM"}, {"measurement": "MIC", "setting": "[1]; Enterococcus faecalis, 3937158, raw MIC, test b, repetition 1, read-out: MIC1b", "result": 37.1, "unit": "µM"}, {"measurement": "MIC", "setting": "[1]; Enterococcus faecalis, 3937158, raw MIC, test b, repetition 2, read-out: MIC2b", "result": 37.1, "unit": "µM"}, {"measurement": "MIC", "setting": "[1]; Enterococcus faecalis, 3937158, raw MIC, test b, repetition 3, read-out: MIC3b", "result": 18.6, "unit": "µM"}, {"measurement": "MIC", "setting": "[1]; [5]", "result": "25.0 ± 6.5", "unit": "µM"}, {"measurement": "MIC in (μg/ml)", "setting": "[1]; [6]", "result": "37.1 ± 9.6", "unit": "µg/mL"}, {"measurement": "MIC", "setting": "[2]; Enterococcus faecium, 3934825, 24 h, microbroth dilution, 96-well, resazurin, 37 °C, 24 h, mean ± SD, at least three independent experiments in triplicates, read-out: MIC", "result": 25, "unit": "µM"}, {"measurement": "MIC", "setting": "[2]; Enterococcus faecium, 3934825, raw MIC, first block, test a, repetition 1, read-out: MIC1a", "result": 25, "unit": "µM"}, {"measurement": "MIC", "setting": "[2]; Enterococcus faecium, 3934825, raw MIC, first block, test a, repetition 2, read-out: MIC2a", "result": 25, "unit": "µM"}, {"measurement": "MIC", "setting": "[2]; Enterococcus faecium, 3934825, raw MIC, first block, test a, repetition 3, read-out: MIC3a", "result": 12.5, "unit": "µM"}, {"measurement": "MIC", "setting": "[2]; Enterococcus faecium, 3934825, raw MIC, first block, test b, repetition 1, read-out: MIC1b", "result": 12.5, "unit": "µM"}, {"measurement": "MIC", "setting": "[2]; Enterococcus faecium, 3934825, raw MIC, first block, test b, repetition 2, read-out: MIC2b", "result": 25, "unit": "µM"}, {"measurement": "MIC", "setting": "[2]; Enterococcus faecium, 3934825, raw MIC, first block, test b, repetition 3, read-out: MIC3b", "result": 25, "unit": "µM"}, {"measurement": "MIC", "setting": "[2]; Enterococcus faecium, 3934825, raw MIC, test a, repetition 1, read-out: MIC1a", "result": 37.1, "unit": "µM"}, {"measurement": "MIC", "setting": "[2]; Enterococcus faecium, 3934825, raw MIC, test a, repetition 2, read-out: MIC2a", "result": 37.1, "unit": "µM"}, {"measurement": "MIC", "setting": "[2]; Enterococcus faecium, 3934825, raw MIC, test a, repetition 3, read-out: MIC3a", "result": 37.1, "unit": "µM"}, {"measurement": "MIC", "setting": "[2]; Enterococcus faecium, 3934825, raw MIC, test b, repetition 1, read-out: MIC1b", "result": 18.6, "unit": "µM"}, {"measurement": "MIC", "setting": "[2]; Enterococcus faecium, 3934825, raw MIC, test b, repetition 2, read-out: MIC2b", "result": 37.1, "unit": "µM"}, {"measurement": "MIC", "setting": "[2]; Enterococcus faecium, 3934825, raw MIC, test b, repetition 3, read-out: MIC3b", "result": 37.1, "unit": "µM"}, {"measurement": "MIC", "setting": "[2]; [5]", "result": "25.0 ± 6.5", "unit": "µM"}, {"measurement": "MIC in (μg/ml)", "setting": "[2]; [6]", "result": "37.1 ± 7.6", "unit": "µg/mL"}, {"measurement": "MIC", "setting": "[3]; 24 h, read-out: MIC Van(with TP10), MICA (with B)", "result": 1.6, "unit": "µM"}, {"measurement": "MIC", "setting": "[3]; read-out: MIC Van (A), MICA", "result": 2, "unit": "µM"}, {"measurement": "percentage of S. aureus intracellular survival", "setting": "[4]; HEK293 infected 25:1 for 2 h, lysostaphin 20 U/ml 30 min, compound 25 µM for 24 h, CFU/ml of lysates vs non-treated cells, triplicates, Fig. 2", "result": "~95", "unit": "%"}, {"measurement": "intracellular MRSA killed (bacterial killing rate)", "setting": "[4]; MRSA-infected HEK293 cells, 25 µM, 24 h", "result": 5, "unit": "%"}]}
